# Experimental data as given in ChEMBL document CHEMBL1201862, “PubChem BioAssay data set” (2004).
# Calls of active or inactive are those of the source.
# Key:
# [1] = target: T1, Bcl-2-like protein 10 (Homo sapiens, UniProt Q9HD36); experiment: displacers of TR3 peptide from Bcl-B, primary screen, selectivity assay for Bfl-1 inhibitor project, biochemical, fluorescence polarization, FITC-TR3 peptide (AID 748);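 further: fluorescence polarization from a fluorescein-labelled TR3 peptide binding purified Bcl-B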
# T1 sequence (Q9HD36 whole entry): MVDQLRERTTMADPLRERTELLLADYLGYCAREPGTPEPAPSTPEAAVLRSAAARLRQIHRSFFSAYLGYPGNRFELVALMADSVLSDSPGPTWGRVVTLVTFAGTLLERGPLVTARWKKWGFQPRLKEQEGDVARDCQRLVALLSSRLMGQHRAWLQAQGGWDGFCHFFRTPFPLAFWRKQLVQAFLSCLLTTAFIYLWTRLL
# [2] = target: Large T antigen (Simian virus 40, UniProt P03070); type: functional, Betapolyomavirus macacae;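 further: Confirmatory-stage PubChem screen for compounds that inhibit SV40 T antigen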
# Large T antigen, sequence (P03070 whole entry): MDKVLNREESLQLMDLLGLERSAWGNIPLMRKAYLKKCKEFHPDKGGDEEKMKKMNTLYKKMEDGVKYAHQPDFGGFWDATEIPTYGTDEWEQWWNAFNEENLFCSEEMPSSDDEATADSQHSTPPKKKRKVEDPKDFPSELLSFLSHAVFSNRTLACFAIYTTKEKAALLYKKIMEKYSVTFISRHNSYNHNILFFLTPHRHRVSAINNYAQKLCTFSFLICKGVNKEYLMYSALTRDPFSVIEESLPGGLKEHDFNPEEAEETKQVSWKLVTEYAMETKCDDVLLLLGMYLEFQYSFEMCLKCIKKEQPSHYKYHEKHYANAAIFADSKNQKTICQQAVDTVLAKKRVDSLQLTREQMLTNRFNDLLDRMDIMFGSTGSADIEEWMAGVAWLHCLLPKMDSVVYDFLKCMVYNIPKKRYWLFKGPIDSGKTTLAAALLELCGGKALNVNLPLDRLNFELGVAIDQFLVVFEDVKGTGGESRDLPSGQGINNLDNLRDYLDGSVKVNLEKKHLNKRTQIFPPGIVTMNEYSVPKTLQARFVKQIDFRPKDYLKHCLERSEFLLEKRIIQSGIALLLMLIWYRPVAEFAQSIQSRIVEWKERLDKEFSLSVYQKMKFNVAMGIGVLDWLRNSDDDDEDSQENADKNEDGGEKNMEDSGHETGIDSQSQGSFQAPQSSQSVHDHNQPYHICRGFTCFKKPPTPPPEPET
# [3] = target: Matrix metalloproteinase-14 (Homo sapiens, UniProt P50281); experiment: Dose Response confirmation of uHTS hits for a small molecule inhibitors of MT1-MMP activation in a fluorescence assay set 1.; type: functional
# [4] = CEM21 lymphoblast cell cytotoxicity, dose response, cytotoxicity control for viral fusion inhibitor project, CellTiter-Glo luminescence, cherry-picked (AID 652042); type: functional, cell-based;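 further: potency for signal decrease meaning cytotoxicity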
# [5] = off-target signal loss in HeLa-CEM21 co-culture – HeLa F-luc CTL cells, cherry-picked, counter-screen for HIV-1 Env fusion inhibitor project, dose response (AID 652040); type: functional, cell-based;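 further: potency for signal decrease marking cytotoxic or nonspecific inhibition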
# [6] = tested on: HeLa; experiment: HeLa cell cytotoxicity, dose response, cytotoxicity control, ATP luminescence, cherry-pick samples (AID 687004); type: functional, cell-based; settings: Homo sapiens
# [7] = tested on: HepG2; experiment: HepG2 cell cytotoxicity, dose response, cytotoxicity control, cherry-picks, set 2 (AID 687002); type: functional, cell-based; settings: Homo sapiens
# [8] = target: Botulinum neurotoxin type F (Clostridium botulinum, UniProt P30996); experiment: High-throughput multiplex microsphere dose response for inhibitors of toxin protease, specifically Botulinum neurotoxin light chain F protease, compounds from Cherry Pick 02.; type: functional; settings: read-out: EC50_MICROM
# Botulinum neurotoxin type F, sequence (P30996 1-436 limits assumed): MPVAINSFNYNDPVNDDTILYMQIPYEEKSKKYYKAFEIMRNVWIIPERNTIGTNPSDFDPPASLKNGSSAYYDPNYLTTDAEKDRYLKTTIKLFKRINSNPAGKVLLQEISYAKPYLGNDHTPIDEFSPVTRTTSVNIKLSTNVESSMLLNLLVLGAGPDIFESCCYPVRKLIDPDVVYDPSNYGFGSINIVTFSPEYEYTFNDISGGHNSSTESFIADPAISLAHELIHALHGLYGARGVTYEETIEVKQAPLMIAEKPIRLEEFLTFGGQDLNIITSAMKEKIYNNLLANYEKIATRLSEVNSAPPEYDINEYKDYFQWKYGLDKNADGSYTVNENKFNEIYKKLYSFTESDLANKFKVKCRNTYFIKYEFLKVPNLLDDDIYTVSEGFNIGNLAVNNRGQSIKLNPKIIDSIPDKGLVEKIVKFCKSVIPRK
# [9] = NIH/3T3 fibroblast cytotoxicity, dose response, cytotoxicity control for T. cruzi growth inhibitor project, cell-based, cherry-pick samples, set 2 (AID 651817); type: functional; settings: NIH3T3
smiles,measurement,setting,value
C/C(=C/c1oc2ccc(O)cc2c1[N+](=O)[O-])N(C)C,IC50,[1],> 100 µM (inactive)
same,IC50,[2],9.41 µM (active)
same,IC50,[3],13.3 µM (active)
CCc1nc(N2CCCCC2C)c2oc3ccccc3c2n1 (centres undefined),AC50,[4],36.2 µM (active)
same,AC50,[5],49.6 µM (active)
same,AC50,[6],11.7 µM (active)
same,AC50,[7],14.2 µM (active)
Cc1cc2ccccc2n1CCNC(=O)Cc1ccccc1,EC50,[8],2.9 µM (active)
Cc1ccc(S(=O)(=O)Nc2ccc3c(c2)CC(=O)N([C@@H](C)CO)C[C@@H](C)[C@H](CN(C)S(=O)(=O)c2ccc(Cl)cc2)O3)cc1,AC50,[9],17.8 µM (active)
